Results published in patent publication US11116847B2, “Methylene carbamate linkers for use with targeted-drug conjugates” (Seagen Inc., priority 2013, dated 2021).

Tests used:
[1] = In vitro stability of drug-linker / model drug-linker compounds to spontaneous hydrolysis of the methylene carbamate unit (LC/MS); format: physicochemical; details: for Relative Degradation Half-life Observed by LC/MS: 0.1M PBS; for Relative Degradation Half-life Observed by LC/MS / drug-linker degradation: pH 7.4, at 37° C.; for degradation / stability to spontaneous hydrolysis / stability to spontaneous hydrolysis when R is dimethylaminoethyl instead of ethyl: 0.1 M phosphate buffered saline; for degradation / stability to spontaneous hydrolysis / comparative hydrolytic stability / stability to spontaneous hydrolysis when R is dimethylaminoethyl instead of ethyl: pH 7.4, 37° C.; for degradation / stability to spontaneous hydrolysis: tested every 24 h for 7 days by LC/MS; for comparative hydrolytic stability: PBS, 8.26 compared with 6.4, 5.6 compared with model compound (8.23); for stability to spontaneous hydrolysis when R is dimethylaminoethyl instead of ethyl: 7 days, compared with 8.26; for drug-linker degradation: after 14 da incubation in 0.1 M PBS
Description: General procedure for testing Drug-Linker stability: Final N-acetyl products of Example 8 were dissolved in 1 mL 0.1 M phosphate buffered saline, pH 7.4, in a vial at 37° C. LC/MS samples were prepared by adding 2 μL aliquots of incubated compound solution to 100 μL of MeOH in an HPLC vial. Each conjugate was tested every 24 h for 7 days.
For evaluation of in vitro stability of Compound 7.7 this Drug-Linker compound was converted to its N-acetylcysteine conjugate (NAC-7.7), which provide a model LDC with NAC serving as a surrogate for a targeting antibody Ligand Unit. For that purpose eight microliters of a 8 mM DMSO stock of Drug-Linker Compound was diluted in phosphate-buffered saline (0.39 mL). The maleimide moiety in each Drug-Linker Compound was then quenched with N-acetylcysteine (0.8 μL, 100 mM stock), and the material was stored in a 37° C. incubator. Aliquots were drawn at various time points out to 14 days and analyzed by UPLC-MS for drug-linker integrity.
Stability testing was conducted as in Example 9.

[2] = system: Type B-1 β-glucuronidase (bovine liver); assay: Release of free drug or model drug from NAC-conjugates after glucuronidase activation of the Self-immolative Assembly Unit; format: biochemical; details: NAC-conjugate corresponding to the named model drug-linker compound (N-acetyl cap replaced by maleimide Stretcher quenched with N-acetyl-cysteine)
Description: Release of free drug from the NAC-7.7 conjugate derived from the Drug-Linker Compound of Example 7 was evaluated in the following manner: An enzyme stock was prepared by dissolving Type B-1 β-glucuronidase (bovine liver, 1,644,000 units/g solid) in pH 5 100 mM sodium acetate buffer to a working concentration of 0.5 mg/mL. Five microliters of 8 mM drug-linker stock of compound 7.7 was added to 12.5 μL DMSO, 26.3 μL of phosphate-buffered saline, and 6.75 μL of 100 mM N-acetylcysteine. The quenched linker was then diluted with 0.45 mL enzyme stock. The enzymatic reaction was then incubated at 37 C, with multiple time points taken at 1, 10, 20, and 40 minutes. Each time point sample consisted of 20 μL reaction diluted in 5 volumes ice cold methanol and cooled to −20 C until all the samples were withdrawn. The samples were then centrifuged at 12,000 g for 5 minutes and 20 μL of supernatant was analyzed by UPLC-MS. After 20 minutes of enzyme digestion the drug-linker was completely consumed. By 40 minutes, the majority of the material was free drug, indicating effectively complete drug release from the linker system.
Releases of stand-in “free drugs” from NAC conjugates incorporating the Drug-Linker moieties from Example 8 were also studied. Those compounds were prepared by replacing the N-acetyl capping group with N-3-(propionoyl)-maleimide, which introduces a maleimide Stretcher Unit precursor, in the amino intermediates used for the preparation of model drug linker compounds 8.23-8.30. The maleimide moieties are then quenched with N-acetyl-cysteine as previously described for the preparation of NAC-7.7. The NAC-conjugates derived from the amino intermediates of Example 8 have the generalized structure of
[drawing 194] wherein T* is the oxygen or sulfur heteroatom from the hydroxyl or sulfhydryl functional group of the primary alcohol or thiol-containing compound or the oxygen heteroatom from the hydroxyl functional group of the secondary or tertiary alcohol-containing compound or from the phenolic-containing compound of Table 3.

With CC(=O)Nc1cc(COC(=O)N(CCN(C)C)COC(C)(C)Cc2ccccc2)ccc1O[C@@H]1O[C@H](C(=O)O)[C@@H](O)[C@H](O)[C@H]1O [Compound 8.31, (2S,3S,4S,5R,6S)-6-(2-acetamido-4-((((2-(dimethylamino)ethyl)(((2-methyl-1-phenylpropan-2-yl)oxy)methyl)carbamoyl)oxy)methyl)phenoxy)-3,4,5-trihydroxytetrahydro-2H-pyran-2-carboxylic acid] as the compound, how does the “Relative Degradation Half-life Observed by LC/MS” value [1] read?
The value was “None Observed”.

And the “Time to 100% Release” value [2]?
Its value is 15 min.

For CCN(COc1cccc2ccccc12)C(=O)OCc1ccc(O[C@@H]2O[C@H](C(=O)O)[C@@H](O)[C@H](O)[C@H]2O)c(NC(C)=O)c1 [Compound 8.28, (2S,3S,4S,5R,6S)-6-(2-acetamido-4-(((ethyl((naphthalen-1-yloxy)methyl)carbamoyl)oxy)methyl)phenoxy)-3,4,5-trihydroxytetrahydro-2H-pyran-2-carboxylic acid], which “Relative Degradation Half-life Observed by LC/MS” value [1] is on record?
The value was “None Observed”.

What about the “degradation / stability to spontaneous hydrolysis” value (“degradation / stability” for short) [1] of the same compound?
The value was “excellent stability”.

And the “Time to 100% Release” value [2]?
Its value is 25 min.

What does the source list for CCN(COC(C)Cc1ccccc1)C(=O)OCc1ccc(O[C@@H]2O[C@H](C(=O)O)[C@@H](O)[C@H](O)[C@H]2O)c(NC(C)=O)c1 (stereo partly drawn) [Compound 8.26, (2S,3S,4S,5R,6S)-6-(2-acetamido-4-(((ethyl(((-phenylpropan-2-yl)oxy)methyl)carbamoyl)oxy)methyl)phenoxy)-3,4,5-trihydroxytetrahydro-2H-pyran-2-carboxylic acid]?
Relative Degradation Half-life Observed by LC/MS [1]: None Observed; degradation / stability to spontaneous hydrolysis [1]: no signs of degradation; comparative hydrolytic stability [1]: increase stability; Time to 100% Release [2]: 45 min

For CCN(CSCCc1ccccc1)C(=O)OCc1ccc(O[C@@H]2O[C@H](C(=O)O)[C@@H](O)[C@H](O)[C@H]2O)c(NC(C)=O)c1 [Compound 8.29, (2S,3S,4S,5R,6S)-6-(2-acetamido-4-(((ethyl((phenethylthio)methyl)carbamoyl)oxy)methyl)phenoxy)-3,4,5-trihydroxytetrahydro-2H-pyran-2-carboxylic acid], which “Relative Degradation Half-life Observed by LC/MS” value [1] is on record?
The value was “None Observed”.

What about the “degradation / stability” value [1] of the same compound?
The value was “no sign of degradation”.

And the “Time to 100% Release” value [2]?
The value was 40 min.

Which results are given for CCN(COC(C)(C)Cc1ccccc1)C(=O)OCc1ccc(O[C@@H]2O[C@H](C(=O)O)[C@@H](O)[C@H](O)[C@H]2O)c(NC(C)=O)c1 [Compound 8.27, (2S,3S,4S,5R,6S)-6-(2-acetamido-4-(((ethyl(((2-methyl-1-phenylpropan-2-yl)oxy)methyl)carbamoyl)oxy)methyl)phenoxy)-3,4,5-trihydroxytetrahydro-2H-pyran-2-carboxylic acid]?
Relative Degradation Half-life Observed by LC/MS [1]: 170 h; stability to spontaneous hydrolysis when R is dimethylaminoethyl instead of ethyl [1]: same excellent stability; degradation / stability to spontaneous hydrolysis [1]: suitable stability; Time to 100% Release [2]: 15 min

Which “Relative Degradation Half-life Observed by LC/MS” value [1] does the source give for CC(=O)Nc1cc(COC(=O)N(CCN(C)C)COCCc2ccccc2)ccc1O[C@@H]1O[C@H](C(=O)O)[C@@H](O)[C@H](O)[C@H]1O [Compound 8.30, (2S,3S,4S,5R,6S)-6-(2-acetamido-4-((((2-(dimethylamino)ethyl)(phenethoxymethyl)carbamoyl)oxy)methyl)phenoxy)-3,4,5-trihydroxytetrahydro-2H-pyran-2-carboxylic acid] here?
Its value is “None Observed”.

What about the “Time to 100% Release” value [2] of the same compound?
Its value is 15 min.

What does the source list for CCN(COCCc1ccccc1)C(=O)OCc1ccc(O[C@@H]2O[C@H](C(=O)O)[C@@H](O)[C@H](O)[C@H]2O)c(NC(C)=O)c1 [Compound 8.25, (2S,3S,4S,5R,6S)-6-(2-acetamido-4-(((ethyl(phenethoxymethyl)carbamoyl)oxy)methyl)phenoxy)-3,4,5-trihydroxytetrahydro-2H-pyran-2-carboxylic acid]?
Relative Degradation Half-life Observed by LC/MS [1]: 170 h; stability to spontaneous hydrolysis when R is dimethylaminoethyl instead of ethyl [1]: same excellent stability; degradation / stability to spontaneous hydrolysis [1]: suitable stability; Time to 100% Release [2]: 15 min

What does the source list for CCN(CO[C@H]1C2[C@H]3O[C@H]3[C@H]3C4=C(CC[C@]3(C)[C@@]23O[C@H]3[C@@H]2O[C@]12C(C)C)C(=O)OC4)C(=O)OCc1ccc(O[C@@H]2OC(C(=O)O)[C@@H](O)[C@H](O)C2O)c(NC(=O)CCNC(=O)CCN2C(=O)C=CC2=O)c1 (stereo partly shown) [Compound 4.5]?
Relative Degradation Half-life Observed by LC/MS [1]: None Observed; drug-linker degradation [1]: No indication of drug-linker degradation

For CO[C@H]1C[C@@H]2CC[C@@H](C)[C@@](O)(O2)C(=O)C(=O)N2CCCC[C@H]2C(=O)O[C@H]([C@@H](C)C[C@H]2CC[C@@H](OCCOCNC(=O)OCc3ccc(NC(=O)[C@H](CCCNC(N)=O)NC(=O)[C@@H](NC(=O)CCN4C(=O)C=CC4=O)C(C)C)cc3)[C@H](OC)C2)CC(=O)[C@H](C)/C=C(\C)[C@@H](O)[C@@H](OC)C(=O)[C@H](C)C[C@H](C)/C=C/C=C/C=C/1C [Compound 5.6], which “Relative Degradation Half-life Observed by LC/MS” value [1] is on record?
The value was 170 h.

And the comparative hydrolytic stability [1]?
The comparative hydrolytic stability was “even better hydrolytic stability”.

What about the drug-linker degradation [1] of the same compound?
The drug-linker degradation was “No indication of drug-linker degradation”.

For C=CC[C@@H]1/C=C(\C)C[C@H](C)C[C@H](OC)[C@H]2O[C@@](O)(C(=O)C(=O)N3CCCC[C@H]3C(=O)O[C@H](/C(C)=C/C3CC[C@@H](OCNC(=O)OCc4ccc(NC(=O)[C@H](CCCNC(N)=O)NC(=O)[C@@H](NC(=O)CCN5C(=O)C=CC5=O)C(C)C)cc4)[C@H](OC)C3)[C@H](C)[C@@H](O)CC1=O)[C@H](C)C[C@@H]2OC (stereo partly shown) [Compound 6.4], which “Relative Degradation Half-life Observed by LC/MS” value [1] is on record?
The value was “None Observed”.

What about the comparative hydrolytic stability [1] of the same compound?
The comparative hydrolytic stability was “acceptable stability”.

What about the drug-linker degradation [1] of the same compound?
The drug-linker degradation was “No indication of drug-linker degradation”.

And the half-life ([1]; phosphate buffered saline, 0.1 M PBS buffer, pH 7.4 at 37° C.)?
The half-life was 10 h.

With COCCOCCOCCOCCOCCOCCOCCOCCN(COC(C)Cc1ccccc1)C(=O)OCc1ccc(O[C@@H]2O[C@H](C(=O)O)[C@@H](O)[C@H](O)[C@H]2O)c(NC(C)=O)c1 (stereo partly drawn) [Compound 8.32, (2S,3S,4S,5R,6S)-6-(2-acetamido-4-(3-oxo-4-(((1-phenylpropan-2-yl)oxy)methyl)-2,7,10,13,16,19,22,25,28-nonaoxa-4-azanonacosyl)phenoxy)-3,4,5-trihydroxytetrahydro-2H-pyran-2-carboxylic acid] as the compound, how does the “Relative Degradation Half-life Observed by LC/MS” value [1] read?
Its value is “None Observed”.

What about the “degradation / stability” value [1] of the same compound?
Its value is “no signs of degradation”.

What about the “Time to 100% Release” value [2] of the same compound?
The value was 15 min.
